# Assay results reported in PubChem BioAssay AID336 (DTP/NCI, 2004).
# Where “and” joins values, the source holds several entries; their conditions need not be identical. Equal values may be shown once. Inconclusive results and toxic doses are left out.
# Tested on: BDF1 mice, P388/VCR leukemia ip, median survival T/C
# Assay: NCI In Vivo Anticancer Drug Screen. Data for tumor model P388 Leukemia resistant to Vincristine; NSC 67574 (intraperitoneal) in B6D2F1 (BDF1) mice
# Details: endpoint: median survival time, higher = longer survival
# Method: The antitumor activity of compounds was measured in mice bearing transplantable tumors. Survival or tumor size were measured and the results are expressed as the measurement made in the treated group (T) divided by the measurement made in the vehicle treated control group (C). The tumor model used in this assay is P388 Leukemia resistant to Vincristine; NSC 67574 (intraperitoneal) in B6D2F1 (BDF1) mice
# [1] = dose: 250.0 mg/kg/injection, schedule: Q01DX010 (ip), vehicle: saline
# [2] = dose: 2.0 mg/kg/injection, schedule: Q01DX010 (ip), vehicle: saline
# [3] = dose: 8.0 mg/kg/injection, schedule: Q01DX010 (ip), vehicle: saline
# [4] = dose: 4.0 mg/kg/injection, schedule: Q01DX010 (ip), vehicle: saline
# [5] = dose: 16.0 mg/kg/injection, schedule: Q01DX010 (ip), vehicle: saline
# [6] = dose: 32.0 mg/kg/injection, schedule: Q01DX010 (ip), vehicle: saline
# [7] = dose: 2.5 mg/kg/injection, schedule: Q01DX010 (ip), vehicle: saline
# [8] = dose: 5.0 mg/kg/injection, schedule: Q01DX010 (ip), vehicle: saline
# [9] = dose: 10.0 mg/kg/injection, schedule: Q01DX010 (ip), vehicle: saline
# [10] = dose: 20.0 mg/kg/injection, schedule: Q01DX010 (ip), vehicle: saline
# [11] = dose: 40.0 mg/kg/injection, schedule: Q01DX010 (ip), vehicle: saline
# [12] = dose: 64.0 mg/kg/injection, schedule: Q01DX010 (ip), vehicle: saline
# [13] = dose: 125.0 mg/kg/injection, schedule: Q01DX010 (ip), vehicle: saline
# [14] = dose: 500.0 mg/kg/injection, schedule: Q01DX010 (ip), vehicle: saline
# [15] = dose: 25.0 mg/kg/injection, schedule: Q01DX010 (ip), vehicle: saline
smiles,measurement,setting,value
COC(=O)C[C@](O)(CCC(C)(C)O)C(=O)O[C@@H]1C(OC)=C[C@]23CCCN2CCc2cc4c(cc2[C@H]13)OCO4,T/C,"dose: 0.25 mg/kg/injection, schedule: Q01DX009 (ip), vehicle: saline",92 % of control
same,T/C,"dose: 0.5 mg/kg/injection, schedule: Q01DX009 (ip), vehicle: saline",100 % of control
same,T/C,"dose: 1.0 mg/kg/injection, schedule: Q01DX009 (ip), vehicle: saline",88 % of control
COC(=O)Nc1nc2ccc(C(=O)c3cccs3)cc2[nH]1,T/C,"dose: 21.6 mg/kg/injection, schedule: Q04DX003 (ip), vehicle: other",151 % of control
same,T/C,"dose: 36.0 mg/kg/injection, schedule: Q04DX003 (ip), vehicle: other",242 % of control
same,T/C,"dose: 60.0 mg/kg/injection, schedule: Q04DX003 (ip), vehicle: other",189 % of control
O=C(Nc1ccc(C2=NCCN2)cc1)c1cc(C(=O)Nc2ccc(C3=NCCN3)cc2)cc([N+](=O)[O-])c1,T/C,"dose: 167.0 mg/kg/injection, schedule: Q01DX010 (ip), vehicle: saline",95 % of control
same,T/C,[1],100 % of control
same,T/C,"dose: 375.0 mg/kg/injection, schedule: Q01DX010 (ip), vehicle: saline",95 % of control
same,T/C,"dose: 512.0 mg/kg/injection, schedule: Q01DX010 (ip), vehicle: saline",100 % of control
C=CC(CN1CC1)OC(C)=O (stereo unspecified),T/C,[2],116 % of control
same,T/C,[3],123 % of control
CC(CN1CC(=O)NC(=O)C1)N1CC(=O)NC(=O)C1 (stereo unspecified),T/C,"dose: 108.0 mg/kg/injection, schedule: Q04DX003 (ip), vehicle: Klucel (hydroxypropylcellulose) (HPC)",120 % of control
same,T/C,"dose: 240.0 mg/kg/injection, schedule: Q04DX003 (ip), vehicle: Klucel (hydroxypropylcellulose) (HPC)",151 % of control
same,T/C,"dose: 300.0 mg/kg/injection, schedule: Q04DX003 (ip), vehicle: alkali diluted with saline",174 % of control
same,T/C,"dose: 400.0 mg/kg/injection, schedule: Q04DX003 (ip), vehicle: Klucel (hydroxypropylcellulose) (HPC)",180 % of control
same,T/C,"dose: 500.0 mg/kg/injection, schedule: Q04DX003 (ip), vehicle: alkali diluted with saline",109 % of control
CC(CCC(C)OS(C)(=O)=O)OS(C)(=O)=O (stereo unspecified),T/C,[2],100 % of control
same,T/C,[4],96 % of control
same,T/C,[3],96 % of control and 100 % of control
same,T/C,[5],100 % of control and 112 % of control
same,T/C,[6],90 % of control
S=P(N1CCOCC1)(N1CC1)N1CC1,T/C,[7],104 % of control and 109 % of control
same,T/C,[8],100 % of control and 109 % of control
same,T/C,[9],100 % of control and 122 % of control
same,T/C,[10],86 % of control and 90 % of control
CN(C)c1ccc(/C=C/c2ccnc3ccccc23)cc1,T/C,[8],92 % of control and 104 % of control
same,T/C,[9],88 % of control and 96 % of control
same,T/C,[10],104 % of control
same,T/C,[11],96 % of control and 100 % of control
Cc1c2ccncc2c(C)c2c1[nH]c1ccccc12,T/C,"dose: 13.0 mg/kg/injection, schedule: Q04DX003 (ip), vehicle: water",150 % of control
same,T/C,"dose: 21.6 mg/kg/injection, schedule: Q04DX003 (ip), vehicle: water",210 % of control
same,T/C,"dose: 24.0 mg/kg/injection, schedule: Q04DX003 (ip), vehicle: clinical formulation",158 % of control
same,T/C,"dose: 36.0 mg/kg/injection, schedule: Q04DX003 (ip), vehicle: water",253 % of control
same,T/C,"dose: 40.0 mg/kg/injection, schedule: Q04DX003 (ip), vehicle: clinical formulation",203 % of control
same,T/C,"dose: 60.0 mg/kg/injection, schedule: Q04DX003 (ip), vehicle: water",93 % of control
same,T/C,"dose: 66.7 mg/kg/injection, schedule: Q04DX003 (ip), vehicle: clinical formulation",98 % of control
COC1C(O)C(C)OC(OC2C(Oc3cccc4c(O)c5c(=O)oc6ccc(C)c7c(=O)oc(c34)c5c67)OC(C)C(O)C2O)C1O (stereo unspecified),T/C,"dose: 43.2 mg/kg/injection, schedule: Q04DX003 (ip), vehicle: acid diluted with saline",121 % of control
same,T/C,"dose: 72.0 mg/kg/injection, schedule: Q04DX003 (ip), vehicle: acid diluted with saline",114 % of control
same,T/C,"dose: 200.0 mg/kg/injection, schedule: Q04DX003 (ip), vehicle: acid diluted with saline",123 % of control
c1ccc(CNc2ncnc3[nH]ncc23)cc1,T/C,[3],92 % of control and 100 % of control
same,T/C,[5],88 % of control and 96 % of control
same,T/C,[6],100 % of control
same,T/C,[12],92 % of control
CCOC(=O)NP(=O)(N1CC1(C)C)N1CC1(C)C (stereo unspecified),T/C,"dose: 31.3 mg/kg/injection, schedule: Q01DX010 (ip), vehicle: saline",117 % of control
same,T/C,[13],185 % of control
same,T/C,[1],246 % of control
O=C(Nc1ccc(C2=NCCN2)cc1)c1cccc(C(=O)Nc2ccc(C3=NCCN3)cc2)c1,T/C,[3],118 % of control
same,T/C,[5],111 % of control
same,T/C,[12],158 % of control
Oc1cc(CN(CCCl)CCCl)c(O)cc1CN(CCCl)CCCl,T/C,"dose: 0.31 mg/kg/injection, schedule: Q01DX010 (ip), vehicle: saline",112 % of control
same,T/C,[7],117 % of control
same,T/C,[8],100 % of control
CCOC(N)=O,T/C,[14],107 % of control and 119 % of control
Nc1nc(=S)c2ncn(C3OC(CO)C(O)C3O)c2[nH]1 (stereo unspecified),T/C,"dose: 0.5 mg/kg/injection, schedule: Q01DX010 (ip), vehicle: saline",92 % of control
same,T/C,"dose: 1.0 mg/kg/injection, schedule: Q01DX010 (ip), vehicle: saline",107 % of control
same,T/C,[2],155 % of control
same,T/C,[4],110 % of control
same,T/C,[3],105 % of control
same,T/C,[5],100 % of control
CCC1(O)CC2CN(CCc3c([nH]c4ccccc34)C(C(=O)OC)(c3cc4c(cc3OC)N(C)C3C(O)(C(N)=O)C(O)C5(CC)C=CCN6CCC43C65)C2)C1 (stereo unspecified) (tested in a mixture with another compound),T/C,"dose: 500.0 micrograms/kg/injection, schedule: Q04DX003 (ip), vehicle: saline",107 % of control
same,T/C,"dose: 648.0 micrograms/kg/injection, schedule: Q04DX003 (ip), vehicle: saline",106 % of control
same,T/C,"dose: 1000.0 micrograms/kg/injection, schedule: Q04DX003 (ip), vehicle: saline",118 % of control
same,T/C,"dose: 1080.0 micrograms/kg/injection, schedule: Q04DX003 (ip), vehicle: saline",100 % of control
same,T/C,"dose: 1800.0 micrograms/kg/injection, schedule: Q04DX003 (ip), vehicle: saline",98 % of control
same,T/C,"dose: 4000.0 micrograms/kg/injection, schedule: Q04DX003 (ip), vehicle: saline",110 % of control
CS(=O)(=O)OCCCCOS(C)(=O)=O,T/C,"dose: 6.25 mg/kg/injection, schedule: Q01DX010 (ip), vehicle: saline",88 % of control and 96 % of control
same,T/C,[15],92 % of control
same,T/C,"dose: 50.0 mg/kg/injection, schedule: Q01DX010 (ip), vehicle: saline",96 % of control
[I][Hg][CH2]C1COC([CH2][Hg][I])CO1 (stereo unspecified),T/C,"dose: 0.78 mg/kg/injection, schedule: Q01DX010 (ip), vehicle: saline",88 % of control
same,T/C,"dose: 1.56 mg/kg/injection, schedule: Q01DX010 (ip), vehicle: saline",103 % of control
same,T/C,"dose: 3.13 mg/kg/injection, schedule: Q01DX010 (ip), vehicle: saline",111 % of control
COS(C)(=O)=O,T/C,"dose: 12.5 mg/kg/injection, schedule: Q01DX010 (ip), vehicle: saline",123 % of control
same,T/C,[15],103 % of control
CN(Cc1cnc2nc(N)nc(N)c2n1)c1ccc(C(=O)N[C@@H](CCC(=O)O)C(=O)O)cc1,T/C,"dose: 8.64 mg/kg/injection, schedule: Q04DX003 (ip), vehicle: sodium bicarbonate",167 % of control
same,T/C,"dose: 14.4 mg/kg/injection, schedule: Q04DX003 (ip), vehicle: sodium bicarbonate",188 % of control
same,T/C,"dose: 24.0 mg/kg/injection, schedule: Q04DX003 (ip), vehicle: sodium bicarbonate",214 % of control
O=CCC(O)C(O)C(O)CO (stereo unspecified),T/C,[13],88 % of control
same,T/C,[1],88 % of control and 92 % of control
same,T/C,[14],92 % of control and 100 % of control
Cn1c(N)nc2nc[nH]c2c1=S,T/C,[9],92 % of control and 100 % of control
same,T/C,[10],96 % of control and 107 % of control
same,T/C,[11],100 % of control and 123 % of control
same,T/C,"dose: 80.0 mg/kg/injection, schedule: Q01DX010 (ip), vehicle: saline",96 % of control
O=c1[nH]c(=O)n(C2CC(O)C(CO)O2)cc1F (stereo unspecified),T/C,[10],112 % of control
same,T/C,[11],154 % of control
